According to PubChem BioAssay (NCI):
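Growth conditions: 96-well plates. Treatment: test compound, 48 hours, 5 concentrations. Analysis: linear interpolation between bracketing concentrations; unreached endpoints set to highest concentration. GI50 marks 50% less growth. TGI: concentration producing complete growth inhibition.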 *1 amine or outer side, *2 acyl side, *3 side chain or, on linkers, in order; H or OH if unused. Where a SMILES comes first, the peptide text is derived from it. [ ]: non-standard residue; d: D form. The star is where a group is joined. ξ: configuration not given here. X15 = CCN(CC)c1ccc2cc(N*)c(=O)oc2c1; dIva = CC[C@@](C)(N)C(=O)O; X14 = O=C(OCCN[*:1])[*:2]; Aib = CC(C)(N)C(=O)O; ξP = O=C(O)C1CCCN1; βAla = NCCC(=O)O

What was measured:
Assay in all cases: inhibition of tumour cell growth, NCI panel, 48 h
[1] = test system: K-562 leukemia
[2] = test system: HL-60(TB) leukemia
[3] = test system: DU-145 prostate
[4] = test system: MOLT-4 leukemia
[5] = test system: SF-295 CNS
[6] = test system: RPMI-8226 leukemia
[7] = test system: NCI-H460 lung
[8] = test system: COLO 205 colon
[9] = test system: BT-549 breast
[10] = test system: NCI-H522 lung

| SMILES | GI50 [1] | TGI [1] | GI50 [2] | TGI [2] | GI50 [3] | TGI [3] | GI50 [4] | TGI [4] | GI50 [5] | TGI [5] | GI50 [6] | TGI [6] | GI50 [7] | TGI [7] | GI50 [8] | TGI [8] | GI50 [9] | TGI [9] | GI50 [10] | TGI [10] |
| --- | --- | --- | --- | --- | --- | --- | --- | --- | --- | --- | --- | --- | --- | --- | --- | --- | --- | --- | --- | --- |
| CCCOc1nc(SCCC)nc2c1cnn2-c1ccccc1 | > 100 µM | > 100 µM | 38 µM | > 100 µM | > 100 µM | > 100 µM | > 100 µM | > 100 µM | 31.8 µM | > 100 µM | 70.9 µM | > 100 µM | > 100 µM | > 100 µM | > 100 µM | > 100 µM | – | – | – | – |
| CSc1ccccc1C#Cc1ccccc1C#CCCCCO | 6.19 µM | 54.4 µM | – | – | 4.73 µM | 18 µM | 7.32 µM | 29.3 µM | 1.54 µM | 6.3 µM | 6.79 µM | 46.6 µM | 8.64 µM | 22.2 µM | 15.8 µM | 31.5 µM | 13.3 µM | 26.6 µM | 14.2 µM | 29.4 µM |
| CC1(C)CC[C@]2(C(=O)N3CCOCC3)CC[C@]3(C)C(=CC[C@@H]4[C@@]5(C)C/C(=C/c6ccncc6)C(=O)C(C)(C)[C@@H]5CC[C@]43C)[C@@H]2C1 | 0.637 µM | > 100 µM | 1.16 µM | 3.96 µM | 2.77 µM | 36.5 µM | 0.787 µM | > 100 µM | 2.03 µM | 34.8 µM | 0.476 µM | 3.36 µM | 1.32 µM | 4.17 µM | – | – | 1.39 µM | 10 µM | 1.3 µM | 6.72 µM |
| O=c1[nH]c(-c2ccc(-c3nc4cc([N+](=O)[O-])ccc4c(=O)[nH]3)cc2)nc2cc([N+](=O)[O-])ccc12 | – | > 100 µM | – | > 100 µM | – | – | – | > 100 µM | – | > 100 µM | – | > 100 µM | – | > 100 µM | – | > 100 µM | – | – | – | > 100 µM |
| O=C(COc1cccc(/C=C2\COc3ccc(Cl)cc3C2=O)c1)c1ccc(Cl)cc1 | 2.67 µM | > 100 µM | 8.99 µM | 31.5 µM | 14.7 µM | 27.8 µM | 5.95 µM | 24.3 µM | 24.9 µM | 39.6 µM | 2 µM | 5.14 µM | 15.8 µM | 30.1 µM | 15 µM | 29.8 µM | – | – | 11.7 µM | 27.2 µM |
| CC(C)C[C@H](NC(=O)[C@@H](O)[C@H](N)Cc1ccc([N+](=O)[O-])cc1)C(=O)O | > 25 µM | > 25 µM | – | – | > 25 µM | > 25 µM | – | – | > 25 µM | > 25 µM | – | – | > 25 µM | > 25 µM | > 25 µM | > 25 µM | > 25 µM | > 25 µM | > 25 µM | > 25 µM |
| Cc1c(Cl)cccc1NC1=C(Cl)C(=O)N(Cc2ccccc2)C1=O | 4.25 µM | 16.9 µM | – | – | 3.67 µM | 17.1 µM | 10.1 µM | 43 µM | 3.01 µM | 14.4 µM | 1.25 µM | 26.7 µM | 11 µM | 30.2 µM | 22.1 µM | 57.2 µM | – | – | 17 µM | > 100 µM |
| C/C=C/C=C/CCCCCCCCCCCCCC1(OC)C=CC(CC(=O)OC)OO1 (centres undefined) | – | > 50.1 µM | – | 18.4 µM | – | – | 7.97 µM | 33.8 µM | 2.58 µM | 6.34 µM | – | 46 µM | – | 29.4 µM | 1.76 µM | 3.19 µM | – | – | 1.58 µM | 3.09 µM |
| CCN(CC)c1ccc2cc(NC(=O)OCCNC(=O)CCNC(=O)[C@H](CC(C)C)NC(=O)C(C)(C)NC(=O)C(C)(C)NC(=O)[C@H](CC(C)C)NC(=O)CCNC(=O)C(C)(C)NC(=O)[C@H](CC(C)C)NC(=O)CCNC(=O)[C@@](C)(CC)NC(=O)[C@H](C)NC(=O)CCNC(=O)C(C)(C)NC(=O)[C@H](C)NC(=O)[C@@H]3CCCN3C(=O)[C@@](C)(CC)NC(=O)[C@H](Cc3ccccc3)NC(=O)C3CCCN3C(=O)C(C)(C)NC(=O)C3CCCN3C(=O)C(C)(C)NC(C)=O)c(=O)oc2c1 (some centres undefined) (Ac-[Aib][ξP][Aib][ξP]F[dIva]PA[Aib][βAla]A[dIva][βAla]L[Aib][βAla]L[Aib][Aib]L[βAla][X14]-X15) | 0.00417 µM | 0.0237 µM | 0.00316 µM | 0.011 µM | 0.00497 µM | 0.0199 µM | 0.00399 µM | 0.0184 µM | 0.00316 µM | 0.0103 µM | – | – | 0.00348 µM | 0.0138 µM | 0.00237 µM | 0.006 µM | 0.00367 µM | 0.022 µM | 0.00305 µM | 0.0124 µM |
| Nc1n[nH]c2cccc(C#Cc3cccc(C(=O)Nc4cc(CN5CCOCC5)cc(C(F)(F)F)c4)c3)c12 | 0.0651 µM | 2.41 µM | – | – | 9.82 µM | 23.8 µM | 2.76 µM | 13.3 µM | 3.46 µM | 14.2 µM | 3.19 µM | 27.3 µM | 4.11 µM | 16.9 µM | 2.7 µM | 11.1 µM | 4.33 µM | 18.8 µM | 3.62 µM | 16.2 µM |
| CC(=O)NC1CC2Oc3ccc(C)cc3C(C)(O2)C1O (centres undefined) | – | > 100 µM | – | > 100 µM | – | – | – | > 100 µM | – | > 100 µM | – | > 100 µM | – | > 100 µM | – | > 100 µM | – | – | – | > 100 µM |
| CCOC(=O)C1=C(Nc2cccc3ccccc23)OC/C1=N\NC(=O)c1ccccc1O | – | > 100 µM | – | 37.8 µM | – | – | – | 53.5 µM | – | > 100 µM | – | > 100 µM | – | > 71.4 µM | – | 29.3 µM | – | – | – | 24.8 µM |
| CCOC(=O)c1nc(Nc2ccc(Cl)cc2)c2ccccc2n1 | 46 µM | > 50 µM | > 50 µM | > 50 µM | 7.39 µM | 15.1 µM | – | – | 8.09 µM | 15.6 µM | 11.8 µM | 30.2 µM | 9.44 µM | 23.7 µM | 9.8 µM | 20.6 µM | 10.2 µM | 25.5 µM | 10.5 µM | 25.8 µM |
| O=C1CCC2(c3ccccc3)Nc3ncccc3N12 (centres undefined) | – | > 100 µM | – | > 100 µM | – | – | – | > 100 µM | – | > 100 µM | – | > 100 µM | – | > 100 µM | – | > 100 µM | – | – | – | > 100 µM |
| CC12CC(OC(=O)[C@]1(C)O)[C@@H]([C@]1(O)CC[C@H]3[C@@H]4C[C@H]5O[C@]56[C@@H](O)C=CC(=O)[C@]6(C)[C@H]4CC[C@@]31C)C2 (some centres undefined) | – | 13.8 µM | – | – | – | 86.7 µM | – | 10.1 µM | – | > 100 µM | – | – | – | 32.3 µM | – | 10.7 µM | – | 9.57 µM | – | 2.92 µM |
| O=C(CCc1cc(-c2ccccc2)nc(=S)[nH]1)Nc1ccccc1[N+](=O)[O-] | – | > 100 µM | – | > 100 µM | – | – | – | > 100 µM | – | > 100 µM | – | > 100 µM | – | > 100 µM | – | > 100 µM | – | – | – | > 100 µM |
